# Measurements as given in patent publication US8859819B2, “Sulphurated derivatives of resorcinol, preparation of same and cosmetic uses thereof” (Pierre Fabre Dermo-Cosmetique, priority 2009, dated 2014).
# Read-outs that look alike come from different tables or passages of the source.
# What was measured:
# mushroom tyrosinase = target: T1, mushroom tyrosinase (Agaricus bisporus, UniProt C7FF04); assay: Tyrosinase inhibition test (in vitro acellular depigmenting activity); assay type: biochemical; conditions: class symbol; assay from 250 to 150 μM; overall tyrosinase activity (MPMOg), L-tyrosine substrate
# T1 construct: purchased Sigma T-3824
# T1 sequence (C7FF04 1-392 limits assumed): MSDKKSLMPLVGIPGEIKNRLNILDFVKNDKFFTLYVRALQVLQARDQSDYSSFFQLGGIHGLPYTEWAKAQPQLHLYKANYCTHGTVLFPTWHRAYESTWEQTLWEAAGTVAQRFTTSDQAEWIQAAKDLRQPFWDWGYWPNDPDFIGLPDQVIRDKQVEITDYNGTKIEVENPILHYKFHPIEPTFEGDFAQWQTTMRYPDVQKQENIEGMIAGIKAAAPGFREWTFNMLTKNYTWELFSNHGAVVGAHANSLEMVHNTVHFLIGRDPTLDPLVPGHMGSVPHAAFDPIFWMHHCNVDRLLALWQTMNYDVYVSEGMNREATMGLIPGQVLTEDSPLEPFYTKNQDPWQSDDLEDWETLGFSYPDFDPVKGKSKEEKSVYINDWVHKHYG
# Source text: A) Determination of the Depigmenting Activity in an in vitro Acellular Test: Tyrosinase Inhibition Test)
# This test is used to evaluate the depigmenting activity of the molecules tested. Tyrosinase is a limiting enzyme in melanogenesis.
# It belongs to the family of oxydoreductases. It has in particular the function: monophenol monooxygenase (MPMO) and polyphenol oxidase (PPO).
# It is synthesised at the level of the melanocytes. It is activated during its migration towards melanosome […]. It transforms tyrosine into DOPA then dopaquinone, which leads in fine to a polymerisation, i.e. a production of pigments (see diagram below).
# The substrate: L-tyrosine, is transformed into L-DOPA by the monophenol mono oxygenase function which is transformed by the polyphenol oxidase function from tyrosinase into dopaquinone. The latter is going to self-oxidise into dopachrome which is measured by spectrophotometry at 490 nm.
# More precisely, it is the overall tyrosinase activity (MPMOg) which is measured since it is the dopachrome in fine that is assayed. Thus the products tested on MPMOg (=measurement of the activity on PPO and MPMO) can cumulate the inhibition of the 2 functions, • inhibiting uniquely the MPMO function stricto sensus (transformation of tyrosine into DOPA) as a complement to the PPO test, • could inhibit PPO uniquely. General Experimental Conditions:
# B16-F10 cells = assay: Melanin assay test in B16-F10 cells; assay type: cell-based, murine
# Description: B) Melanin Assay Test in B16-F10 Cells:
# This involves a test of measuring the synthesis of melanin by colorimetric assay on a murine melanoma cell line: the B16-F10 line. This test makes it possible to evaluate the depigmenting power of active ingredients.
# The B16-F10 cells are cultured in 96-well plates in DMEM medium supplemented with FCS (foetal calf serum), and incubated for 24 hours at 37° C., 5% CO2. The cells are then stimulated with 0.1 μM α-MSH (to stimulate the synthesis of melanin, the stimulation observed is around 150%) and treated for 72 hours with the active ingredients to be tested. Each concentration of active ingredient is tested at least in triplicate. The total melanin followed by the intracellular melanin dissolved in the lysis buffer are then assayed by absorbance reading at 405 nm. The total proteins are assayed in the lysate and the results are expressed in mg melanin/mg proteins. The percentage of activity is calculated as follows: […]
# A negative value indicates an inhibition, whereas a positive value indicates an induction of the synthesis of melanin.
# • B16-F10 cell line between P10 and P20 (murine melanocytes) (ATCC, CRL-6475)
# Reagents: • DMEM without phenol red (GibcoBRL, 31053-028), 200 mM Glutamax-I Supplement (GibcoBRL, 35050-038), D-PBS (GibcoBRL, 14190-094), Foetal calf serum (Invitrogen, 10270-098), Trypsine-EDTA (GibcoBRL, 25300-054), NaOH (Sigma, S8045-500G), DMSO (Sigma, 471267-1L), Nle, Phe—Melanocyte Stimulating Hormone (Sigma, M-8764), Melanin (Sigma, M-0418), BCA-Copper (Sigma, B9643 and C2284), BSA (Sigma, P0914) C) Test for the Study of the Antioxidant Capacity by Chemiluminescence (Photochem Analytik Jena) Principle: […]
# [1] = Antioxidant capacity by chemiluminescence (Photochem Analytik Jena); conditions: Trolox equivalent; lower = stronger antioxidant
# Description: This test is used to determine the antioxidant capacity of the molecules. It is a method that generates free radicals by a photochemical signal. The intensity of the oxidation is 1000 times greater than that obtained under normal conditions.
# The detection is carried out by chemiluminescence. It enables the evaluation of hydrosoluble and liposoluble anti-oxidant molecules or extracts.
# The results are expressed respectively in equivalent quantity of vitamin C or Trolox (6-hydroxy-2,5,7,8-tetramethylchroman-2-carboxylic acid). The sensitivity is of the order of a nanomole.
# The antioxidant activity studied in this test represents the capacity to trap specifically superoxide anions by chemiluminescence.
# The quantified results are expressed in Trolox equivalent (standard), i.e. in “μg of product for 1 μg of Trolox”. This signifies that a quantity×of sample is needed to obtain an activity equivalent to the activity detected for 1 μg of standard. It is an anti-oxidant power relative to a reference, which makes it possible to disregard the concentration tested.
# The superoxide radical: 02^0− is generated by a photochemical reaction: L+hv (UV)+O2→L*O2→L^0++O2^0−
# A part of the superoxide anions is quenched by the anti-oxidants. The remaining free radicals are quantified by chemiluminescence. L^0++O2^0−→N2+AP*^2−→AP^2−+hv (luminescence)
# [2] = Protection of linoleic acid following a UV stress (Fenton conditions, MDA-TBA assay); parameters: % Protection Linoleic acid under UV/Fenton: concentration or dose not given beside the values; conditions: UV + H2O2 + iron II
# Source text: D) Test of Protection of Linoleic Acid Following a UV Stress. Target: Protection of Linoleic Acid Under Fenton Conditions, UV Irradiation Linoleic acid belongs to the family of polyunsaturated fatty acids (PUFA) (AGPI). Sensitive to oxidation, linoleic acid is a favoured target for oxygenated free radicals (OFR) in biological media. When biological membranes are exposed to an oxidative stress, the components the most affected are the phospholipids constituted of PUFA and cholesterol. Their degradation leads to lipidic peroxidation and generally to destructuring. Lipidic peroxidation is a self-catalysing process which generally involves OFR. Lipidic peroxidation is in part responsible for skin ageing. The method employed to evaluate lipid peroxidation is based on the coupling of thiobarbituric acid (TBA) and secondary degradation products leading to coloured compounds detectable by spectrofluorometry. The essential secondary compound of final degradation is malondialdehyde, MDA. MDA is a carcinogenic and mutagenic aldehyde, it acts on proteins and DNA. The sample to be tested is placed in contact with linoleic acid in a weight/weight ratio. The sample undergoes an MED (Minimal Erythemal Dose) irradiation under Fenton conditions, namely in the presence of H202 and iron II in a solar simulator. Following irradiation, the reaction mixture is taken up in methanol and derivatised at 90° C. with TBA. Chromogene, the MDA-TBA complex, representative of the equimolar production of MDA is assayed by fluorimetry (excitation at 525 nm, emission at 549 nm). The results are expressed in fluorescence units, as a function of a MDA-TBA control range then expressed as concentration of the MDA-TBA complex. Then, the percentage of the starting MDA/linoleic acid (LA) ratio is determined. Then the percentage of protection of linoleic acid is determined. The product assay is expressed as weight/weight ratio, in other words in weight percentage with respect to the total quantity of linoleic acid. The maximal MDA level is determined by the condition UV+H202+iron II (F). The percentage of protection of linoleic acid represents: the % ratio of MDA under maximal stress conditions untreated over the % of MDA under stress conditions treated by the product.
# [3] = Mus musculus, B16-F10, 50 μM, α-MSH stimulated, 72 hours, negative value = inhibition of melanin synthesis, read-out: B16 activity results -% at X μM
# [4] = Mus musculus, B16-F10, 72 h, read-out: B16 activity results -% at X μM
Compound,Tyrosinase depigmenting activity result (mushroom tyrosinase),inhibition at 50 µM (B16-F10 cells; [3]) [%],μg of sample for 1 μg of Trolox [1],% Protection Linoleic acid under UV/Fenton [2] [%],inhibition at 10 µM (B16-F10 cells; [4]) [%],inhibition at 50 µM (B16-F10 cells; [4]) [%],inhibition at 20 µM (B16-F10 cells; [4]) [%],"inhibition at 61 µM (B16-F10 cells; Mus musculus, B16-F10, 61 μM, α-MSH stimulated, 72 hours, negative value = inhibition, read-out: B16 activity results -% at X μM) [%]","inhibition at 92 µM (B16-F10 cells; Mus musculus, B16-F10, 92 μM, α-MSH stimulated, 72 hours, negative value = inhibition, read-out: B16 activity results -% at X μM) [%]","B16 activity results -% at X μM (B16-F10 cells; 14 μM, α-MSH stimulated, 72 hours, negative value = inhibition)"
"O=C(CCc1ccccc1)Oc1ccc(Sc2ccc(O)cc2O)c(O)c1 [Example 18, 4-(2,4-dihydroxyphenylthio)-3-hydroxyphenyl 3-phenylpropanoate]",+ + +,20,24.1 μg of sample for 1 μg of Trolox,90,–,–,–,–,–,–
"CCCCCCCCOc1ccc(Sc2ccc(O)cc2O)c(O)c1 [Example 8, 4-(2-hydroxy-4-(octyloxy)phenylthio)benzene-1,3-diol]",+ + +,–,18.8 μg of sample for 1 μg of Trolox,97,40,–,–,–,–,–
"CCCCCCCCNC(=O)Oc1cc(O)ccc1Sc1ccc(O)cc1O [Example 24, 2-(2,4-dihydroxyphenylthio)-5-hydroxyphenyl octylcarbamate]",+ + +,–,3.8 μg of sample for 1 μg of Trolox,97,–,26,–,–,–,–
"COc1ccc(COc2cc(O)ccc2Sc2ccc(O)cc2O)cc1 [Example 11, 4-(4-hydroxy-2-(4-methoxybenzyloxy)phenylthio)benzene-1,3-diol]",+ + +,–,3.5 μg of sample for 1 μg of Trolox,91,–,–,34,–,–,–
"CC(C)=CCC/C(C)=C/COc1cc(O)ccc1Sc1ccc(O)cc1O [Example 4, (E)-4-(2-(3,7-dimethylocta-2,6-dienyloxy)-4-hydroxyphenylthio)benzene-1,3-diol]",+ + +,–,5.2 μg of sample for 1 μg of Trolox,89,35,–,–,–,–,–
"Oc1ccc(Sc2ccc(O)cc2OCc2ccccc2)c(O)c1 [Example 9, 4-(2-(benzyloxy)-4-hydroxyphenylthio)benzene-1,3-diol]",+ + +,–,3.2 μg of sample for 1 μg of Trolox,85,–,–,31,–,–,–
"O=C(CCc1ccccc1)Oc1cc(O)ccc1Sc1ccc(O)cc1O [Example 17, 2-(2,4-dihydroxyphenylthio)-5-hydroxyphenyl 3-phenylpropanoate]",+ + +,–,3.9 μg of sample for 1 μg of Trolox,87,–,–,–,–,50,–
"CC(C)=CCC/C=C(\C)CC/C(C)=C/COc1cc(O)ccc1Sc1ccc(O)cc1O [Example 2, 4-(4-hydroxy-2-((2E,6E)-3,6,11-trimethyldodcca-2,6,10-trienyloxy)phenylthio)benzene-1,3-diol]",+ +,–,9.7 μg of sample for 1 μg of Trolox,92,–,–,–,–,–,−50% (14 μM)

# Continued, in another order:
Tyrosinase depigmenting activity result (mushroom tyrosinase),Compound,inhibition at 50 µM (B16-F10 cells; [3]) [%],μg of sample for 1 μg of Trolox [1],% Protection Linoleic acid under UV/Fenton [2] [%],inhibition at 10 µM (B16-F10 cells; [4]) [%],inhibition at 50 µM (B16-F10 cells; [4]) [%],inhibition at 20 µM (B16-F10 cells; [4]) [%],"inhibition at 61 µM (B16-F10 cells; Mus musculus, B16-F10, 61 μM, α-MSH stimulated, 72 hours, negative value = inhibition, read-out: B16 activity results -% at X μM) [%]","inhibition at 92 µM (B16-F10 cells; Mus musculus, B16-F10, 92 μM, α-MSH stimulated, 72 hours, negative value = inhibition, read-out: B16 activity results -% at X μM) [%]","B16 activity results -% at X μM (B16-F10 cells; 14 μM, α-MSH stimulated, 72 hours, negative value = inhibition)"
+ +,"CCCCCCCC(=O)Oc1cc(O)ccc1Sc1ccc(O)cc1O [Example 15, 2-(2,4-dihydroxyphenylthio)-5-hydroxyphenyl octanoate]",–,30 μg of sample for 1 μg of Trolox,75,20,–,–,–,–,–
+ + +,"CC(C)CC(=O)Oc1ccc(Sc2ccc(O)cc2O)c(O)c1 [Example 20, 4-(2,4-dihydroxyphenylthio)-3-hydroxyphenyl 3-methylbutanoate]",24,25.6 μg of sample for 1 μg of Trolox,91,–,–,–,–,–,–
+ + +,"Oc1ccc(Sc2ccc(OCc3ccccc3)cc2O)c(O)c1 [Example 10, 4-(4-(benzyloxy)-2-hydroxyphenylthio)benzene-1,3-diol]",–,22 μg of sample for 1 μg of Trolox,94,–,–,20,–,–,–
+ + +,"CC(C)CC(=O)Oc1cc(O)ccc1Sc1ccc(O)cc1O [Example 19, 2-(2,4-dihydroxyphenylthio)-5-hydroxyphenyl 3-methylbutanoate]",20,2.8 μg of sample for 1 μg of Trolox,88,–,–,–,–,–,–
+ + +,"Oc1ccc(Sc2ccc(O)cc2O)c(O)c1 [Example 1, 4,4′-thiodibenzene-1,3-diol]",–,23 μg of sample for 1 μg of Trolox,90,–,–,–,50,–,–
+ + +,"CC(C)=CCOc1cc(O)ccc1Sc1ccc(O)cc1O [Example 3, 4-(4-hydroxy-2-(3-methylbut-2-enyloxy)phenylthio)benzene-1,3-diol]",–,4.7 μg of sample for 1 μg of Trolox,87,–,–,41,–,–,–
